Values joined by “and” are separate entries in the source; they are usually repeats but may differ in a detail not shown here. Identical values can stand only once.

For one experiment, the system named is Erbb4-null mice. Briefly: AngII-induced myocardial fibrosis in Erbb4-null mice, Masson's trichrome fibrosis. The class given is in vivo, mouse. Set-up: Perivascular fibrosis: dose or concentration left out as unconfirmed. Here is the method:
(§1) Four weeks after implantation, cardiac ultrasound was performed, mice were euthanized, and hearts were collected. A similar set-up was used for the 1-week study (Alzet, model 1007D) in male mice (n = 9-10 mice in every group).
Floxed Erbb4 mice (Erbb4^f/f; C57BL/6N; 129-Erbb4tm1Fej/Mmucd, MMRRC, #010439-UCD) were crossed with CAGGCre-ER^TM mice (Jackson Laboratory, 004682) containing the Tg(CAG-cre/Esr1*)5Amc transgene that expresses Cre recombinase under the control of a chicken beta actin promoter/enhancer coupled to the human cytomegalovirus immediate-early gene enhancer, resulting in expression of tamoxifen-inducible Cre-ERT in most cell types. To induce Cre recombinase-mediated deletion of Erbb4, eleven-week-old female and male iCAGGCre-ER^TM/Erbb4^f/f mice were intraperitoneally injected with tamoxifen (Merck, T5648; 10 mg/kg; in corn oil) daily for 5 consecutive days.
Hearts were fixed in 4% PFA, paraffin-embedded, and cut into 5-µm sections. Images were acquired with an Olympus BX43 microscope (Olympus Stream Motion Software) or a CELENA® S Digital Imaging System and analyzed with ImageJ 2.14.0 software. Collagen distribution was visualized by Masson’s trichrome staining. Cardiac total fibrosis was expressed as the ratio of positively stained fibrotic area (blue) to the total area and perivascular fibrosis as the ratio of fibrotic area to vascular lumen area. Scar size was determined by measuring the scar length over the […]. Hypertrophy and vascularisation were visualized via an isolectin-B4/WGA/DAPI staining. Quantification was performed by a person blinded to the treatment protocol.

Experiment [1] deals with iAMs. Briefly: WST-1 cell viability assay in H2O2-treated iAMs. The class given is cell-based, rat. More on the design: In vitro cell viability assay with WST-1: unit not given here. Here is the method:
Following the transfer of 150 µL of culture medium for the ToxiLight assay, 7 µL of WST-1 reagent (Merck, 5015944001) was added directly to the remaining cell culture medium in each well. The cells were incubated at 37 °C for an additional 4 h. After incubation, the absorbance of the samples was measured at 450 nm (690 nm was used as reference wavelength and subtracted) using a microplate reader (Epoch). […]
In general terms: Tetrazolium assays rely on reduction of a dye to a coloured formazan, in cell work by metabolically active cells.

In experiment [2] the test system is mouse model of AngII-induced myocardial fibrosis. Briefly: AngII-induced myocardial fibrosis mouse model, 1 week, heart mRNA by RT-qPCR. In kind it is in vivo. Here is the method: as §1
RNA was extracted using Nucleospin RNA XS (Macherey-Nagel, 740902.50) according to the manufacturer’s instructions. For cDNA synthesis, total RNA was added to a mixture containing buffer with random hexamers and reverse transcriptase enzyme (TaqMan reverse transcription reagents, Applied biosystems, N8080234) after which samples were incubated for 10 min at 25 °C, 30 min at 48 °C, and 5 min at 95 °C. RT-qPCR was performed on QuantStudio 3 Real-time PCR system (Applied Biosystems) using Taqman Universal PCR Master Mix (Applied Biosystems, 4304437) and Taqman primers according to the manufacturer’s instructions. Settings were as follows: […] followed by 10 min at 95 °C, 40 cycles (45 cycles for ERBB4) of denaturation at 95 °C for 15 s, and 1 min at 60 °C. All reactions were run in duplicate, and all data were normalized against housekeeping genes glyceraldehyde-3-phosphate dehydrogenase (GAPDH), beta-actin (ACTB), or phosphoglycerate kinase 1 (PGK1). Expression levels were calculated using the comparative cycle method and expressed as fold change (FC) to appropriate controls. The following TaqMan primers were used (Thermo Fisher Scientific): GAPDH (Hs02758991_g1, Mm99999915_g1 and Rn01775763_g1), PGK1 (Hs99999906_m1), ID2 (Hs04187239_m1), BMPR1B (Hs01010965_m1), CACNA2D4 (Hs00297782_m1), DUSP2 (Hs00358879_m1), NR4A1 (Hs00374226_m1), SGK1 (Hs00178612_m1), COL1A1 (Mm00801666_g1), COL3A1 (Hs00943809_m1 and Mm00802305_g1), ERBB4 (Hs00955525_m1 and Rn00572447_m1), ACTB (Mm02619580_g1) and ANP (Mm01255747_g1).
(Real-time PCR tracks product formation cycle by cycle.)

Experiment [3] concerns iAMs. Briefly: Bulk RNA sequencing of cardiomyogenically differentiated iAMs. The class given is cell-based, rat. As to conditions: EF-1 32 µM, 16 h, log2-fold change ≥0.58, P adj <0.05. How it is done: iAMs were seeded at a density of 6 ×10^6 cells/mL in differentiation medium in 75-cm^2 cell culture flasks (Greiner Bio-One, 658175) and incubated for 9 days (d0 = day of seeding). HCF were seeded at a density of 3 × 10^6 cells/mL in fibroblast medium in 75-cm^2 cell culture flasks. […] Next, cells were lysed using 350 µL buffer RLT (Qiagen) supplemented with β-mercaptoethanol (100:1; Merck, 444203). Total RNA was isolated using the RNeasy Micro Kit (Qiagen, 74104) according to the manufacturer’s protocol, with an extra step of DNase digestion. The concentration and quality of RNA were determined using a Qubit fluorometer (Thermo Fisher Scientific) and 2100 Agilent BioAnalyzer (Agilent Technologies), respectively. Samples with an RNA integrity number >7 were used for library preparation. Sequencing libraries were prepared by Genewiz/Azenta (Leipzig) on cDNA prepared from polyadenylated mRNA. Libraries were sequenced using a NovaSeq 6000 (Illumina) with a read length of 2 ×150 bp.
Gene expression was quantified at the transcript level using Salmon (v1.10.0)[60], with the validatMappings and -gcBias parameters switched on, to the Rnor_6.0 or GRCh38 transcriptome. […] Functional enrichment of DEGs was determined using a hypergeometric test against the Gene Ontology database by using the ClueGO (v2.5.7)[64] module of Cytoscape (v3.9.1)[65] with Benjamini–Hochberg adjusted (FDR) P < 0.05. […]

[4] abbreviates: AngII/EF-1, male wild type mice, EF-1 2 mg/kg/day, single animals, 2 mg/kg/day.

Turning to `O=C(NC1CC1)C(Sc1nc2ccccc2c(=O)n1C1CCCC1)c1ccccc1` (stereo not drawn) [EF-1], in the experiment with Erbb4-null mice (male+female Erbb4-null mice, AngII/EF-1, AngII 400 ng/kg/day, single animals), the Total fibrosis was 3.25 and 2.45 and 2.12 and 2.92 and 4.07. Further, in the experiment with Erbb4-null mice (male+female Erbb4-null mice, AngII/EF-1, single animals), the Perivascular fibrosis is 0.6515 and 1.352 and 0.6814 and 0.7388 and 1.066. The “effect on AngII-induced interstitial or perivascular fibrosis in Erbb4-null mice (in words)” value with Erbb4-null mice (mouse, in vivo) is “did not significantly prevent interstitial or perivascular AngII-induced fibrosis”. Moreover, the “cell viability, WST-1 absorbance (in words)” value in the experiment on iAMs [1] (100 µM H2O2, pre-treatment with EF-1) is listed as “significantly increased cell viability”. In addition, the “In vitro cell viability assay with WST-1” value with iAMs [1] (H2O2/EF-1, individual replicates) was 1.268 and 0.9224 and 0.7959 and 0.7633 and 0.6939 and 1.2898 and 0.9164 and 0.8058 and 0.7767 and 0.7185 and 1.306 and 0.9585 and 0.8456 and 0.8168 and 0.7703 and 1.242 and 0.9643 and 0.8304 and 0.8393 and 0.7321. Besides, in experiment [2] (setting [4]), the “Col1a1 mRNA in heart, normalized FC compared to Ctrl” value was 0.89 and 1.45 and 5.23 and 1.1 and 0.7 and 1.4 and 1.83 and 0.45; the “Col3a1 mRNA in heart, normalized FC compared to Ctrl” value was 0.3868 and 1.25 and 2.15 and 0.45 and 0.1877 and 2.4002 and 0.7979 and 0.9965; the “Nppa mRNA in heart, normalized FC compared to Ctrl” value was 0.84 and 6.51 and 3.53 and 3.93 and 1.08 and 3.77 and 5.6 and 2.74 and 3.12. For the same compound, in experiment [2] (male wild type mice), the “effect on AngII-induced Col1a1 and Col3a1 mRNA expression (in words)” value is given as “significantly reduced”; the “effect on atrial natriuretic peptide (Nppa) expression (in words)” value is “significantly decreased”. Also, in the experiment with iAMs [3], the “number of significantly downregulated genes compared to Veh” value is 1120 and the “number of significantly upregulated genes compared to Veh” value came to 354.
